# Source: patent US10029014B2, “Synthesis of novel asymmetric bow-tie PAMAM dendrimer-based conjugates for tumor-targeting drug delivery” (priority 2013, dated 2018)
# Where two headings read alike, the source gives them in different places.
# Legend:
# in vitro = conditions: human
# ID-8 = assay: Cytotoxicity assay, MTT method, ID-8 cells; conditions: read-out: Cytotoxicity (IC50, nM) ID-8
# MX-1 = assay: Cytotoxicity assay, MTT method, MX-1 cells; conditions: read-out: Cytotoxicity (IC50, nM) MX-1
# WI-38 = assay: Cytotoxicity assay, MTT method, WI-38 cells; conditions: read-out: Cytotoxicity (IC50, nM) WI-38; 72 hours of drug exposure at 37° C. under 5% CO2
# [1] = 72 hours of drug exposure at 37° C. under 5% CO2
IC50 at 72 h (in vitro) [nM],SMILES,"IC50 (ID-8; Mus musculus, ID8, 72 h) [nM]","IC50 (MX-1; Homo sapiens, MX1, 72 h) [nM]",IC50 (ID-8; [1]) [nM],IC50 (MX-1; [1]) [nM],IC50 (WI-38) [nM]
175,CC(=O)O[C@H]1C(=O)[C@@]2(C)[C@H]([C@H](OC(=O)c3ccccc3)[C@]3(O)C[C@H](OC(=O)[C@H](O)[C@@H](NC(=O)c4ccccc4)c4ccccc4)C(C)=C1C3(C)C)[C@]1(OC(C)=O)CO[C@@H]1C[C@@H]2O [Paclitaxel],21.2,3.83,,,
,CC(=O)O[C@@]12CO[C@@H]1C[C@H](O)[C@@]1(C)C(=O)[C@H](OC(=O)C3CC3)C3=C(C)[C@@H](OC(=O)[C@H](O)[C@H](C=C(C)C)NC(=O)OC(C)(C)C)C[C@@](O)([C@@H](OC(=O)c4ccccc4)[C@H]21)C3(C)C [SB-T-1214],,,1.89,2.9,4.14
